How the values were obtained:
Type in all cases: in vivo
Settings in all cases: diet supplementation, 10 ruminants per group; putative results
ruminants [1] = assay: comparison of lactylates: effect on methane emission
Experimental: The well documented in vitro gas production technique (batch culture) (Soliva et al., Letters in Applied Microbiology 2003, 37, 35-39) was used in this study. The rumen fluid used in this incubation was obtained before the morning feeding from 3 rumen fistulated dairy cows on a basal diet composed of 50% maize silage and 50% wilted grass silage (on DM basis), supplemented with some straw and soybean meal. In addition, a balanced compound feed was fed to fulfill the animals' requirements for milk production. The rumen fluid of the three animals was mixed and used to prepare the inoculum. Incubations were performed in sealed 125-mL flasks, in triplicate. The supplements comprising the lactylates (in this case applied as ALOAPUR® powder as obtained from Purac/Corbion) at the level of 1 mg per ml buffered rumen fluid (see below), as well as the simulated dairy cow ration were added to the incubation flasks. On the day of the incubation, the flasks were sealed and flushed with CO2. To each flask, 25 mL of CO2-saturated bicarbonate/phosphate buffered rumen fluid was added (buffer:rumen fluid 4:1, v:v) before the onset of the in vitro incubations at 39° C. in a shaking incubator (Edmund Bühler Gmbh, Hechingen, Germany). After 24 h incubation period, the flasks were removed from the incubator and put directly in an ice bath to stop the microbial activity. Total gas pressure was measured, and the gas phase was sampled for gas composition analysis. Afterwards, pH was measured, and samples were collected for volatile fatty acids (VFA) analysis and protozoa numbers counting. […] Methane emission is determined as described in Example 1; SCC, BC and mastitis effects are determined as described in Example 2. Effect on fecal consistency and effect on milk yield is determined as described in Example 3. The different lactylates are stearoyl lactylate, lauroyl lactylate, myristoyl lactylate, cetyl lactylate, palmitoyl lactylate and oleic lactylate. As control, the same diet without lactylates is supplied.

ruminants [2] = assay: comparison of lactylates: effect on fecal consistency score
Experimental: (§1) Two experiments were carried out to evaluate the efficacy of lactylate in stimulating intestinal absorptive capacity and improving fecal consistency, dry matter content and scores and milk fat yield. The first experiment was conducted with goats and the second with dairy cows. The focus of the first experiment was the absorptive capacity and fecal consistency and scores, while the 2nd experiment focused on the effect on milk fat yield. In the first experiment, a goat farm was used. The farm had issues with fecal consistency, having at least 30 goats per pen with low fecal consistency. Fecal consistency and scores per pen were recorded 2 times per week from the start of the experiment for a period of 3 months. The goats in the farm were supplemented with lactylates (in this case applied as ALOAPUR® powder as obtained from Purac/Corbion) (added to the compound feed) at the rate of 3.5 to 7 g per goat per day. The 2nd study focused on the effect on milk fat yield and was conducted at a dairy research farm. The herd (120 cows) was divided into 2 groups blocked on days in milk, milk yield and milk fat %. One group was supplemented with 50 g of lactylates per cow per day while the other group served as a control. The ration for both groups was similar and was balanced on energy, protein and minerals and vitamins. The experiment lasted for 9 week. Performance data was collected/recorded on weekly basis. […] Methane emission is determined as described in Example 1; SCC, BC and mastitis effects are determined as described in Example 2. Effect on fecal consistency and effect on milk yield is determined as described in Example 3. The different lactylates are stearoyl lactylate, lauroyl lactylate, myristoyl lactylate, cetyl lactylate, palmitoyl lactylate and oleic lactylate. As control, the same diet without lactylates is supplied.

ruminants [3] = assay: comparison of lactylates: effect on milk fat yield
Experimental: as §1

ruminants [4] = assay: comparison of lactylates: effect on SCC, BC and mastitis
Experimental: Two experiments were carried out to evaluate the efficacy of lactylates in stimulating udder health. The first experiment was conducted with goats and the second with dairy cows. In the first experiment, a goat farm was used. The farm had issues with udder health and had high levels of somatic cell count (SCC) and bacterial counts (BC) in milk delivered. Performance and udder health data were collected every 4 weeks from shortly before starting the experiment for a duration of 3 months. During the experiment all goats on the farm were offered a ration supplemented with lactylates (in this case applied as ALOAPUR® powder as obtained from Purac/Corbion) (added to the compound feed, 3.5 to 7 g per goat per day). During the 3-month study period, every 3 to 4 weeks, data on performance and udder health was collected. The 2nd study was conducted on 7 dairy farms. […] Lactylates were supplemented to the ration of the cows on those farms via the compound feed (25 to 40 g per cow per day). The study lasted for 3 months. Performance and udder health data were collected at the beginning and every 4 weeks of the study. […] Methane emission is determined as described in Example 1; SCC, BC and mastitis effects are determined as described in Example 2. Effect on fecal consistency and effect on milk yield is determined as described in Example 3. The different lactylates are stearoyl lactylate, lauroyl lactylate, myristoyl lactylate, cetyl lactylate, palmitoyl lactylate and oleic lactylate. As control, the same diet without lactylates is supplied.

Row | Compound | Methane emission reduction relative to control (ruminants [1]) | Number of ruminants with low fecal consistency reduced relative to control (ruminants [2]) | Average milk fat yield increased relative to control (ruminants [3]) | BC in milk reduced relative to control (ruminants [4]) | SCC in milk reduced relative to control (ruminants [4]) | incidence of mastitis reduced relative to control (ruminants [4])
1 | CCCCCCCCCCCCCCCC(=O)OC(C)C(=O)O (stereo not drawn) [Palmitoyl lactylate, palmitoyl lactylate] | by >90% | by >50% | by >10% | by >20%, | by >20%, | by >25%
2 | CCCCCCCCCCCCCC(=O)OC(C)C(=O)O (stereo not drawn) [Myristoyl lactylate, myristoyl lactylate] | by >90% | by >50% | by >10% | by >20%, | by >20%, | by >25%
3 | cetyl lactylate | by >90% | by >50% | by >10% | by >20%, | by >20%, | by >25%
4 | CCCCCCCCCCCC(=O)OC(C)C(=O)O (stereo not drawn) [Lauroyl lactylate, lauroyl lactylate] | by >90% | by >50% | by >10% | by >20%, | by >20%, | by >25%
5 | CCCCCCCC/C=C\CCCCCCCC(=O)OC(C)C(=O)O (stereo not drawn) [Oleic lactylate, oleic lactylate] | by >90% | by >50% | by >10% | by >20%, | by >20%, | by >25%
